According to patent publication US20260345798A1, “COMPOUNDS AND METHODS OF USE THEREOF” (Virginia Commonwealth University, priority 2023, published 2026):
Residues, ends and D or L forms follow the SMILES beside them.

Assays:
NF-κB = NF-κB (p65) transcription factor assay; format: cell-based, human; conditions: A-375 and C8161.9 melanoma cells
Protocol: FIG. 4C is a histogram showing the NF-κB transcriptional activity of A-375 melanoma cells treated with the indicated doses of IVMT-Rx-3. *: Statistical significance (p<0.05).
FIG. 4D is a histogram showing the NF-κB transcriptional activity of C8161.9 melanoma cells treated with the indicated doses of IVMT-Rx-3. *: Statistical significance (p<0.05).
NF-κB transcription factor assay kits were obtained from Cayman Chemical (Ann Arbor, MI, USA) (Cat #10007889). Nuclear extracts were prepared from cells using the Nuclear and Cytoplasmic Extraction kit (Thermo Fisher Scientific, USA). The samples were then added to pretreated wells for 1 hr. after which they were washed with a wash buffer provided in the kit. The NF-κB antibody was then added with a 1 hr. incubation and after washing the antibody, HRP-conjugated secondary antibody was added for 1 hr. Lastly, a developing solution followed by a stop solution was added. The wells were analyzed with a microplate reader for absorbance at 450 nm.

[1] = system: Src, P38 and IκB phosphorylation in A-375 and C8161.9 cells; assay: Western blotting of signaling proteins, human melanoma cells; format: cell-based; conditions: 24 hours
Protocol: (§1) FIG. 4B is a Western blot of C8161.9 and A-375 cells treated with indicated doses of IVMT-Rx-3 for 24 hours. Cell lysates were subjected to Western blotting analysis to determine the expression levels of various signaling proteins (as shown) associated with MDA-9/Syntenin: Src interactions. Western blotting densitometry and relative intensity of protein bands were calculated using Image J software. The values are provided.
(§2) Western blotting was performed following a standard protocol as described previously (6,8,18,29). Antibodies used in this study were purchased from Cell Signaling Technology (Boston, MA): p-Src (Y416), total Src, matrix metalloproteinase-2 (MMP-2) and matrix metaloproteinase-9 (MMP-9), focal adhesion kinase (FAK), p IKKα/β (S176/180), total IKK, p P38 (T180/Y182) and total P38. MDA-9/Syntenin antibody was obtained from Abnova Inc. (Taiwan). β-actin (Sigma-Aldrich, St. Louis, MO) was used as an endogenous loading control. Fibronectin was purchased from EMD Millipore (Billerica, MA).

IGFBP-2 = IGFBP-2 ELISA in conditioned media; format: cell-based, human; conditions: 10, 25 or 50 μM, 24 hr
Protocol: FIG. 5C is a series of histograms showing the amount of IGFBP-2 secreted from A-375, C8161.9, TPF-19-219, TPF-19-235, and TPF-16-238 cells treated with varying concentrations of IVMT-Rx-3, as measured by ELISA.
IGFBP-2 levels in conditioned media were determined using an IGFBP-2 ELISA kit (R&D systems, USA) according to the manufacturer's instructions (9). Each sample was repeated three times, and represented graphically with GraphPad Prism software.
Insulin Growth Factor Binding Protein-2 (IGFBP-2) has been found in higher levels in the serum of individuals with diverse types of pathological conditions and is very germane in the context of angiogenesis, tumor promotion and chemoresistance (33). Since Src activation is critical for IGFBP-2 induced angiogenesis, a potential suppressive function of IVMT-Rx-3 on IGFBP-2 expression levels was investigated (9). Melanoma cells were treated with different doses (10, 25 or 50 μM) of IVMT-Rx-3 for 24 hr. and levels of IGFBP-2 in the media were determined using ELISA (FIG. 5C). […] Blocking MDA-9/Syntenin expression inhibits the secretion of cytokines/growth factors in breast cancer resulting in the conversion of an immunosuppressive to immunostimulatory microenvironment (23). Accordingly, the level of specific melanoma metastasis-associated cytokines, e.g., IL-6, IL-10, IL-16, following treatment with IVMT-Rx-3 was analyzed. […]

[2] = target: PDZ tandem protein Harmonin (Homo sapiens, UniProt Q9Y6N9); assay: Binding to other PDZ domains: Harmonin; conditions: 36% identity to PDZ2 and 31% to PDZ1 of MDA-9/Syntenin
MMP-2 and MMP-9 [3] = assay: MMP-2 and MMP-9 mRNA by real time qPCR, human melanoma cells; format: cell-based; conditions: FIG. 5A
Excerpt: FIG. 5A is a series of histograms showing the MMP-2 and MMP-9 mRNA transcriptional activity in established human melanoma cells (A-375, C8161.9, and MeWo cells) and patient-derived early passage human melanoma cells (TPF-19-219, TPF-19-235, and TPF-16-238 cells) treated with IVMT-Rx-3 at varying doses, as determined by qPCR. *: Statistical significance (p<0.05).
(§3) Total cellular RNA was extracted using an RNAeasy kit (Qiagen, Germany) as described previously (8,9). All Taqman probes used in this study were obtained from Applied Biosystems (Applied Biosystems, Foster City, CA). Real time PCR was performed using an ABI ViiA7 fast real-time PCR system (Applied Biosystems, Foster City, CA).

MMP-2 and MMP-9 [4] = assay: MMP-2 and MMP-9 mRNA by qPCR, B16 cells; format: cell-based; conditions: B16 mouse melanoma cells
Protocol: FIG. 13C is a series of histograms showing the MMP-2 and MMP-9 mRNA fold change in the cells treated as described in FIG. 13A, as determined by qPCR. *: Statistical significance (p<0.05).
as §3

MMP-2 and MMP-9 [5] = assay: MMP-2 and MMP-9 protein by Western blotting; format: cell-based, human; conditions: Western blot; A-375, C8161.9, 24 hours; FIG. 4B
Protocol: as §1, §2

[6] = system: X11/mint scaffold protein; assay: Binding to other PDZ domains: X11/mint; conditions: 33% identity with PDZ1
A-375 and C8161.9 cells = assay: Boyden chamber invasion assay, comparison with PDZ1i; format: cell-based, human; conditions: 25 μM each
Protocol: (§4) FIG. 11A is a series of photomicrographs taken at 10× magnification showing invasion assays of A-375 cells treated with DMSO vehicle, 25 μM PDZ1i, or 25 μM IVMT-Rx-3, as well as histograms showing quantification of the average percent invasion of three independent experiments±standard deviation. *: Statistical significance (p<0.05).
as §4, with “11B” for “11A”, “C8161.9” for “A-375”, “IVMT-Rx-3 in C8161.9 melanoma cells,” for “IVMT-Rx-3,”
Invasive phenotype was measured using a Boyden Chamber Assay as described previously (6,8,18). Briefly, 25,000 cells were plated on the upper chamber of the trans well in FBS free media and allowed to invade the Matrigel layer towards the bottom chamber supplemented with complete media. Twenty-four hr. after plating, the invaded cells were fixed and counted under a bright field microscope.

Chain of PDZ tandem protein Harmonin (Q9Y6N9 whole entry, the tested form may be a part): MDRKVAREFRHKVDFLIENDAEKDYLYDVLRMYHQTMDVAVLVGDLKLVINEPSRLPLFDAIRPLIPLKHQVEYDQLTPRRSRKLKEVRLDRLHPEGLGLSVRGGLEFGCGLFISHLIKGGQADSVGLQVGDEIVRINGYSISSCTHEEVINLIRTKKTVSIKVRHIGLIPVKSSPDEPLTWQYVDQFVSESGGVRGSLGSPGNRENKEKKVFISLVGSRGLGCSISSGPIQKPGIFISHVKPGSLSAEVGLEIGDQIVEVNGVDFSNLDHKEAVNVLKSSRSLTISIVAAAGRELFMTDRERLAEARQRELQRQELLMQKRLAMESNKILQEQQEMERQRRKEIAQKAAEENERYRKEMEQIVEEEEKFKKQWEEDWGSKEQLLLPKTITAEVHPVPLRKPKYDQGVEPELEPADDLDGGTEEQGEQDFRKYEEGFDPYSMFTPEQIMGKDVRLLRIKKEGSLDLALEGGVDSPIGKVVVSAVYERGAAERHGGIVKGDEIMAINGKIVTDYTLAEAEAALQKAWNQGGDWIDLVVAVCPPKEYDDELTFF

binding to Harmonin [2]: did not bind appreciably
binding to X11/mint scaffold protein [6]: did not bind appreciably
Structure (SMILES): Cc1cc(NC(=O)c2nc3[nH]c4c(c(=O)n3n2)CCC4)c(C)cc1NC(=O)CCOCCC(=O)N[C@H](C(=O)N[C@@H](CC(N)=O)C(=O)N[C@@H](CCC(=O)O)C(=O)N[C@@H](Cc1ccc(O)cc1)C(=O)N[C@@H](Cc1ccc(O)cc1)C(=O)N[C@H](C(=O)O)C(C)C)[C@@H](C)O [IVMT-Rx-3] (HELM PEPTIDE1{[Cc1cc(NC(=O)c2nc3[nH]c4c(c(=O)n3n2)CCC4)c(C)cc1NC(=O)CCOCCC(=O)[*:2]].T.N.E.Y.Y.V}$$$$V2.0)
transcriptional activity of NF-κB (NF-κB): suppressed the transcriptional activity of NF-κB in a dose-dependent manner
Src activation (Src phosphorylation) [1]: significantly reduced Src activation
levels of p-P38, p-Src, and pIκB [1]: Reduced levels
IGFBP-2 in tumor-derived media (IGFBP-2): dose-dependent downregulation
MMP-2 and MMP-9 mRNA expression (transcriptional level) (MMP-2 and MMP-9 [3]): down regulation
expression of MMP-2 and MMP-9 (MMP-2 and MMP-9 [4]): lower expression of MMP-2 and MMP-9
MMP-2 and MMP-9 expression (translational level) (MMP-2 and MMP-9 [5]): down regulation
anti-invasive efficacy in comparison with PDZ1i (A-375 and C8161.9 cells): significantly enhanced the anti-invasive efficacy in comparison with PDZ1i
